Assay [1] addresses T1, Tyrosine-protein phosphatase non-receptor type 1 (Homo sapiens, UniProt P18031).
T1 sequence (P18031 whole entry): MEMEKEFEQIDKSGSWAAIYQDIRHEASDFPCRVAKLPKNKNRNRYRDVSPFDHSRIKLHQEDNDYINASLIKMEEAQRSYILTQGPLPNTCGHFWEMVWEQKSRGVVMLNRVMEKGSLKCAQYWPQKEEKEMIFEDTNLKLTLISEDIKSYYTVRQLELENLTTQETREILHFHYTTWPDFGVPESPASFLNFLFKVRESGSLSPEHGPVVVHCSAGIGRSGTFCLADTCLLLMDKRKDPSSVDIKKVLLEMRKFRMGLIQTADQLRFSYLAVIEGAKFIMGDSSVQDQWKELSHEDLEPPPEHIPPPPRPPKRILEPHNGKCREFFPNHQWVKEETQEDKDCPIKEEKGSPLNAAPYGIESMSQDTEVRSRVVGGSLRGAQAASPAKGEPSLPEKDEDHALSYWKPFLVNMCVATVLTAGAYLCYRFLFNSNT
The assay can be described thus: Binding affinity to human N-terminal His6-tagged PTP1B catalytic domain (1 to 298 residues) expressed in Escherichia coli strain Rosetta2 (DE3) assessed as association rate constant using DiFMUP as substrate preincubated for 10 mins followed by substrate addition measured for 10 mins fluorescence assay.

Assay [2] has as its target T1, Tyrosine-protein phosphatase non-receptor type 1. Nature of the assay: Binding affinity to human N-terminal His6-tagged PTP1B catalytic domain (1 to 298 residues) expressed in Escherichia coli strain Rosetta2 (DE3) assessed as dissociation rate constant using DiFMUP as substrate preincubated for 10 mins followed by substrate addition measured for 10 mins fluorescence assay.

By kon is commonly meant the second-order rate constant of association. By koff is commonly meant the first-order rate constant of dissociation.

The structures appear in SMILES notation.

For `C=c1c(O)c(O)cc2c1=CC=C1[C@@]2(C)CC[C@@]2(C)[C@@H]3C[C@](C)(C(=O)O)CC[C@]3(C)CC[C@]12C`, the kon in assay [1] amounted to 59 M⁻¹ s⁻¹. In assay [2], the off-rate constant (koff) was 0.000362 s⁻¹.

These data come from BindingDB's records for doi:10.1021/acs.jmedchem.8b01224 (Helmholtz Zentrum M?nchen, 2018).
